In patent US20220033355A1, “CRYSTAL FORM A OF 2-(2, 5-DIOXOPYRROLIDIN-1YL) ETHYL METHYL FUMARATE, PREPARATION METHOD THEREFOR AND USE THEREOF” (SHENZHEN RENTAI PHARMATECH LTD., priority 2019, published 2022):
Counter-ions that a name gives are not always drawn.

Columns and labels:
Format in all cases: physicochemical
[1] = Light stability of the crystal form (XRPD comparison); details: 25° C., 4500 Lux
Procedure: (§1) Method: Cu target Ka, voltage: 40 KV, current: 40 mA, test angle: 3-45°, scanning step: 0.02, exposure time: 0.2S, slit width of light pipe: 2 mm, Dtex detector.
(1) Light stability: the test sample is placed in an environment having a temperature of 25° C. and a light condition of 4500 Lux for 5 days and 10 days, respectively, to test the stability of the crystal form.
(1) Light stability: by referring to the same method of light stability test for crystal A, the test sample is placed in an environment having a temperature of 25° C. and a light condition of 4500 Lux for 5 days to test the stability of the crystal form, which is compared with XRPD pattern of the crystal form I on day 0.

[2] = High-temperature stability of the crystal form (XRPD comparison); details: 60° C.
Procedure: as §1
(2) High-temperature stability: the test sample is placed at a temperature of 60° C. for 5 days and 10 days, respectively, to test the stability of the crystal form.
(2) High-temperature stability: by referring to the same method of high-temperature stability test for crystal A, the test sample is placed at a temperature of 60° C. for 5 days to test the stability of the crystal form, which is compared with XRPD pattern of the crystal form I on day 0.

[3] = High-humidity stability 1 of the crystal form (XRPD comparison); details: 92.5% RH, 25° C.
Procedure: as §1
(3) High-humidity stability 1: the test sample is placed in an environment having a humidity of 92.5% RH and a temperature of 25° C. for 5 days and 10 days, respectively, to test the stability of the crystal form.
(§2) (3) High-humidity stability 1: by referring to the same method of high-humidity stability test 1 for crystal A, the test sample is placed in an environment having a humidity of 92.5% RH and a temperature of 25° C. for 5 days to test the stability of the crystal form, which are compared with XRPD pattern of the crystal form I on day 0.

[4] = High-humidity stability 2 of the crystal form (XRPD comparison); details: 75% RH, 40° C.
Procedure: as §1
(4) High-humidity stability 2: the test sample is placed in an environment having a humidity of 75% RH and a temperature of 40° C. for 5 days and 10 days, respectively, to test the stability of the crystal form.
as §2, with “(4)” for “(3)”, “2:” for “1:”, “2” for “1”, “75%” for “92.5%”, “40°” for “25°”

[5] = Dynamic vapor sorption (DVS) hygroscopicity study; details: 25° C., RH stepped up from RH 0 to RH 90% at RH 10% per step, 10 min per step, when RH 90% is completed
Procedure: Model: DVS intrinsic (SMS, British); Method: 25° C., relative humidity is stepped up at a rate of 10%, the judgment standard is change in moisture content is <0.02% over a 10-minute period. Dynamic vapor sorption (DVS) experiment are performed for the crystal form I of Example 1 and the crystal form A prepared in Example 2 to obtain DVS curves under the following conditions: the temperature is 25° C., the relative humidity (RH) is stepped up from RH 0 to RH 90% at a rate of RH 10% per step, with 10 min for each step to reach equilibrium.

[6] = 5 days, XRPD compared with day 0

Row | light stability of the crystal form ([1]; 5 days and 10 days, XRPD) | high-temperature stability of the crystal form ([2]; 5 days and 10 days, XRPD) | high-humidity stability 1 of the crystal form ([3]; 5 days and 10 days, XRPD) | high-humidity stability 2 of the crystal form ([4]; 5 days and 10 days, XRPD) | weight increase due to moisture absorption [5] | SMILES | light stability of the crystal form [1, 6] | high-temperature stability of the crystal form [2, 6] | high-humidity stability 1 of the crystal form [3, 6] | high-humidity stability 2 of the crystal form [4, 6]
1 | good light stability | good high-temperature stability | good high-humidity stability | good high-humidity stability | – | COC(=O)/C=C/C(=O)OCCN1C(=O)CCC1=O [crystal form A, 2-(2,5-dioxopyrrolidin-1yl)ethyl methyl fumarate] | – | – | – | –
2 | – | – | – | – | 0.642% | COC(=O)/C=C/C(=O)OCCN1C(=O)CCC1=O [crystal form I, 2-(2,5-dioxopyrrolidin-1yl)ethyl methyl fumarate] | unstable under lights and easily transforms into crystal form A | unstable under high temperatures and easily transforms into crystal form A | unstable under high humidity and easily transforms into crystal form A | unstable under high humidity and easily transforms into crystal form A
